The record followed here is patent US12564568B2, “PKC pathway in Parkinson's Disease” (CEDARS-SINAI MEDICAL CENTER, priority 2018, dated 2026).

“Also recorded” adds a separate entry of the source. A value given as a limit tells only on which side of the number the result lay.

For one series, the system named is LC3. Description: LC3 level in day 30 DaNs after PEP treatment (western blot). Format: cell-based, human. The settings on record: PD cells.
Series [1] is described as follows: Dose ranging study in mini-pig. It counts as in vivo. The settings on record: pigs. On the procedure: For dose ranging studies in rat and mini-pig. Repeated doses up to 15 ug/kg/day for 7 days were tolerated in rats, 5 ug/kg in pigs
A further series concerns LAMP1. Description: LAMP1 level in day 30 mDA cultures after PEP005 (western blot). Format: cell-based, human.
In a further series the test system is DaN cultures. Description: LDH on drug treatment of DaN cultures. Format: cell-based, human. The text has this:
It is likely that the toxicity of PEP is more specific to highly proliferative cells whereas the Inventors' differentiated neurons are largely post mitotoic.

For the next series, the system named is TH. The series is described as follows: TH gene expression over PEP005 time-course (qPCR). It counts as cell-based, human. To be noted: roughly 8 hours after initial exposure. On the procedure:
qPCR: Total cellular RNA was isolated using TRIzol Reagent followed by Qiagen RNeasy Mini kit with DNase treatment. Total RNA (1 μg) was used for cDNA synthesis using the Quantitate Reverse Transcription Kit for cDNA synthesis for PCR (Qiagen). Real-time PCR was performed using the SYBR Green Supermix (BIO-RAD). The levels of expression of respective genes were normalized to corresponding GAPDH values and shown as fold change relative to the value of the control sample (ΔΔCt method)

Series [2] concerns α-synuclein. The series is described as follows: α-synuclein protein level in day 30 iPSC-derived mDA (DaN) cultures after drug treatment (western blot, immunostaining). It counts as cell-based, human. To be noted: in vitro, single 24-hour dose.
Series [3] concerns α-synuclein. The series is described as above. It counts as cell-based, human. As for the experimental part: iPSC maintenance, mDA neuron differentiation and drug treatments: iPSCs were maintained in E8 media on Matrigel and passaged every 5 days at split ratios from 1:6 to 1:12 as needed using Versene. Only iPSCs between passage 17 and passage 35 were used in this study. For differentiation, iPSCs were grown to ˜80% confluency. Cells were singularized with Accutase (Millipore/Sigma #SCR005) (5 minutes at 37° C.) and plated onto Matrigel-coated 6-well plates (BD Biosciences) at 200K cells per cm^2 (for a fully confluent monolayer) in E8 media with 5 μM Y27632 (StemGent). 24 hours after plating, media was changed to Stage 1 (50% DMEM/F12, 50% Neurobasal, N2, B27-Vitamin A, LDN-193189 (LDN), SB431542 (SB)). Stage 1 media was changed each day (3 mL per well) for 3 days. Media was next switched to Stage 2 (50% DMEM/F12, 50% Neurobasal, N2, B27-Vitamin A, LDN, SB, Purmorphamine (PMN), CHIR99021 (CHIR), Sonic hedgehog (SHH), Fibroblast Growth Factor 8 (FGF8)). Stage 2 media was changed each day (3 mL per well) for 4 days. Media was then switched to Stage 3 (50% DMEM/F12, 50% Neurobasal, N2, B27-Vitamin A, LDN, CHIR, all-trans-Retinoic acid (ATRA)). Stage 3 media was changed each day (3 mL per well) for 4 days. Finally, media was switched to Stage 4 (50% DMEM/F12, 50% Neurobasal, N2, B27+Vitamin A, Brain-Derived Neurotrophic Factor (BDNF), Glial Cell Line-Derived Neurotrophic Factor (GDNF), dibutyryl cyclic-AMP sodium salt (dbCAMP), L-Ascorbic Acid (AA), γ-Secretase inhibitor (DAPT), CHIR, Transforming Growth Factor beta-3 (TGF β3)). Stage 4 media was changed each day (3 mL per well) for 3 days. On day 15, cells were dissociated to single cells using Accutase (20 mins at 37° C.) and gently lifted. Dissociated cells were resuspended in Maturation Medium (50% DMEM/F12, 50% Neurobasal, N2, B27+Vitamin A, BDNF, GDNF, dbCAMP, AA, DAPT, TGF3) plus 5 μM Y27632 and reseeded onto Matrigel-coated 6-well plates at 200 k/cm^2 in 1 mL total volume or onto Matrigel-coated L-glass coverslips in a 24-well plate at 200 k/50 μL drop. Cells were allowed to attach for 45 mins at 37° C. and Maturation Medium was then added to final volumes of 3 mL per well for 6-well plates or 1.5 mL per well for 24-well plates with coverslips. A full medium change was performed 48-hours post-seeding and medium was changed every 3 days until day 30. For drug treatments, cells at day-27 were fed with Maturation Medium containing the indicated drug and cells were analyzed at day 30.
Immunocytochemistry and imaging: mDA neuron cultures were plated on L-glass coverslips and grown as above. Day 30 neurons were fixed in 4% PFA at room temperature for 10-15 mins. Fixed coverslips were washed in PBS and permeabilized for 10 minutes at room temperature in 1% Triton X-100 in PBS, followed by staining in primary antibody solution (5% normal donkey serum, 0.125% Triton-X, PBS) overnight at 4° C. with the following antibodies: TH (1:5000, Immunostar #22941) and α-synuclein (1:500, Abcam #ab138501). Samples were washed 3 times in PBS and stained with species-specific Alexa Fluor 488 or 594-conjugated secondary antibodies (1:500, Invitrogen) for 2 hours at room temperature, followed by DAPI counterstain. Confocal Z-stack images were acquired using a A1 microscope (Nikon) with 40× and 20× objectives and rendered using maximum intensity projection through IMARIS software (Bitplane).
Western blot: Cells were gently scraped off the plates, washed with PBS, centrifuged at 15000 RPM for 1 min, and dry pellets were frozen at −80° C. Samples were then thawed and lysed using 1×NETN buffer (20 mM Tris-HCl (pH 8.0), 100 mM NaCl, 0.5 mM EDTA and 0.5% NP-40) supplemented with phosphatase/protease inhibitor cocktail (MS-SAFE, Sigma-Aldrich). Lysates were sonicated in an automated cold bath sonicator for 20 mins using alternating 10 sec pulses followed by 10 sec rests. Samples were centrifuged for 20 min at 4° C. at 15000 RPM. Total soluble protein concentrations were measured using a Bradford assay (BIO-RAD). […]

A short description of series [4]: In vitro blood plasma binding, human. Format: in vitro ADME. The text has this: This may complicate IV delivery.
Series [5] can be described thus: IV bolus dose study, respiratory effects in rat. Format: in vivo. To be noted: doses up to 10 ug/kg. The source says: In multiple IV bolus dose studies, the following was observed.
Series [6] relates to α-synuclein. Description: Unilateral striatal injection in wild-type C57BL/6 mice, α-synuclein in striatum (western blot, IHC). To be noted: 215 ng dose, 3 days post-treatment.

As for `C/C=C(/C)C(=O)O[C@H]1C(C)=C[C@]23C(=O)[C@@H](C=C(CO)[C@@H](O)[C@]12O)[C@H]1[C@@H](C[C@H]3C)C1(C)C` [PEP005, ingenol-3-angelate], the LC3 response entry in the series with LC3 was “neither LAMP1 nor LC3 respond”. In [1], this compound gave a tolerated repeated dose of no more than 5 µg/kg. Further, the LAMP1 protein entry in the series on LAMP1 (PD cells treated with PEP005) is reported as “does not appear to be replicated”; with LAMP1 (PD cells treated with PEP005, listed as PEP), “neither LAMP1 nor LC3 respond”; in the series with LAMP1 (control and PD cells / all iPSC lines, 1 μM PEP005 for 3 days), “increase”; in the series with LAMP1 (control cells treated with PEP005), “increase”. Further, in the series on DaN cultures, the “LDH on drug treatment” value is given as “nor do the Inventors see an increase”. The “TH expression (qPCR)” value with TH is listed as “upregulated”. The “duration for which synuclein levels remained depressed” value in the series on α-synuclein [2] amounted to 168 h. The “α-synuclein levels (western blot)” value in the series with α-synuclein [3] (EOSPD/PD cultures (190iPD), treated 3 days from day 27, PEP005 1 μM, SMER-28 5 μM, Trehalose) was “substantially reduced”; with α-synuclein [3] (both control and PD cultures / all treated lines, PEP005 1 μM, 3 days), “reduced; also recorded: decrease; also recorded: rapid reduction”. Moreover, in the series with α-synuclein [3] (PEP005-treated mDA cultures), the α-synuclein by immunostaining entry is recorded as “decreased”. The “amount of α-synuclein protein (western blot)” value in the series with α-synuclein [3] (control line cultures (02iCTR), treated 3 days from day 27, PEP005 1 μM, SMER-28 5 μM, Trehalose) was “significantly reduced”. The “α-synuclein at low PEP005 doses” value in the series with α-synuclein [3] (dose response study, low doses) is recorded as “robust reduction”. In addition, the “time until α-synuclein is degraded in response to drug treatment” value in the series on α-synuclein [3] (time-course, control and PD cultures) was no more than 24 h. Moreover, in series [4], the plasma binding entry is recorded as “highly efficient plasma binding”. For the same compound, in series [5], the respiratory effects entry is given as “no biologically relevant responses”. Moreover, the “α-synuclein levels in striatum, injected (L) relative to contralateral side (R)” value in the series on α-synuclein [6] is listed as “significantly reduced; also recorded: reduces”.
